Measured values from patent publication US20110070232A1, “Combination Therapy with an Antitumor Alkaloid” (Pharma Mar, S.A., priority 2008, published 2011).
Where two headings read alike, the source gives them in different places.

Legend:
Assay type in all cases: in vivo, mice
[1] = tested on: PLC/PRF/5 tumors
Method: (§1) Female athymic nude mice (Harlan Sprague Dawley, Madison, Wis.) were utilized for all experiments. Animals were housed in ventilated rack caging with food and water ad libitum. The mice were acclimated for at least 5 days prior to tumor implantation with a tumor cell suspension.
The tumor model used in these studies was PLC/PRF/5 cell line, which was obtained from the ATCC (Manassas, Va.).
PLC/PRF/5 were grown in Eagle's minimum essential medium supplemented with 10% FBS and 1% L-glutamine. Each animal was implanted SC on the right flank, using a 13G trochar and 1 mL syringe, with 5×10^6 PLC/PRF/5 cells in a 0.2 mL suspension of 50% Matrigel and 50% serum free MEM medium, without antibiotics. Bacterial cultures were performed on aliquots of the cells prepared for implantation.
Treatments were initiated on DPI 14.
(§2) Tumor size measurements were recorded twice weekly from the treatment initiation until the termination of the study.
(§3) Mean, standard deviation and standard error of the mean were determined for tumor volume for all animal groups at all assessments. Student's t test was performed on tumor volumes at each measurement day, including at the end of the study, to determine whether there were any statistically significant differences between combination treatment groups and single monotherapy treatment groups.

[2] = tested on: HepG2 tumors
Method: as §1
The tumor model used in these studies was HepG2 cell line, which was obtained from the ATCC (Manassas, Va.).
HepG2 cells were grown in MEM supplemented with 10% FBS, 1.5 g/L sodium bicarbonate, 0.1 mM non-essential amino acids, 1.0 mM sodium pyruvate, and 2 mM L-glutamine. Each animal was implanted SC on the right flank, using a 13G trochar, with 5×10^6 HepG2 cells in a 0.2 mL suspension of 50% Matrigel and 50% serum free medium, without antibiotics. Bacterial cultures were performed on aliquots of the cells prepared for implantation.
Treatments were initiated on DPI 19.
as §2, §3

[3] = tested on: NCI-H460 tumors; conditions: alone or with PM00104 0.9 mg/kg/day IV
Method: Female athymic nude mice (Harlan Sprague Dawley, Madison, Wis.) were utilized for all experiments. Animals were housed in ventilated rack caging with food and water ad libitum. The mice were acclimated for at least 5 days prior to tumor implantation.
The tumor model used in this study was NCI-H460 cell line which is a human NSCLC cell line obtained from the ATCC (Manassas, Va.). […] Cells from in vitro passage 7 were implanted SC into study mice using a 1 ml syringe with a 13G trocar: 5×10^6 cells/mouse in 0.2 ml 50% Matrigel/50% RPMI medium of NCI-H460 without serum or antibiotics. Bacterial culture was taken on cells used to implant the study.
Treatments were initiated on DPI 9.
Tumor size measurements were recorded 2-3 times/week from the treatment initiation until the termination of the study.
as §3

[4] = day 14, PM00104 0.90, sorafenib 60 mg/kg/day
[5] = day 22, PM00104 0.90, sorafenib 30 mg/kg/day
[6] = day 22, PM00104 0.90, sorafenib 60 mg/kg/day
[7] = day 25, PM00104 0.90, sorafenib 60 mg/kg/day
[8] = day 28, PM00104 0.90, sorafenib 60 mg/kg/day
[9] = day 32, PM00104 0.90, sorafenib 60 mg/kg/day
[10] = day 39, PM00104 0.90, sorafenib 60 mg/kg/day
[11] = day 42, PM00104 0.90, sorafenib 60 mg/kg/day
[12] = day 19, PM00104 0.90, sorafenib 30 mg/kg/day
[13] = day 26, PM00104 0.90, sorafenib 60 mg/kg/day
[14] = day 30, PM00104 0.90, sorafenib 30 mg/kg/day
[15] = day 30, PM00104 0.90, sorafenib 60 mg/kg/day
[16] = day 33, PM00104 0.90, sorafenib 60 mg/kg/day

## CNC(=O)c1cc(Oc2ccc(NC(=O)Nc3ccc(Cl)c(C(F)(F)F)c3)cc2)ccn1 [sorafenib]
[1]; day 14, PM00104 0.90, sorafenib 30 mg/kg/day
  % T/C: 99.5%
[1]; [4]
  % Inhibition: 1.5%
  % T/C: 98.5%
[1]; day 18, PM00104 0.90, sorafenib 60 mg/kg/day
  % Inhibition: 26.4%
[1]; [5]
  % T/C: 79.5%
[1]; [6]
  % Inhibition: 47.8%
  % T/C: 52.2%
[1]; [7]
  % Inhibition: 46.6%
  % T/C: 53.4%
[1]; [8]
  % Inhibition: 56.6%
  % T/C: 43.4%
[1]; [9]
  % Inhibition: 57.1%
  % T/C: 42.9%
[1]; day 35, PM00104 0.90, sorafenib 30 mg/kg/day
  % T/C: 54.7%
[1]; day 35, PM00104 0.90, sorafenib 60 mg/kg/day
  % T/C: 36.5%
[1]; day 39, PM00104 0.90, sorafenib 30 mg/kg/day
  % T/C: 59.3%
[1]; [10]
  % Inhibition: 49.8%
  % T/C: 50.2%
[1]; [11]
  % Inhibition: 44.6%
  % T/C: 55.4%
[2]; day 19, PM00104 0.60, sorafenib 30 mg/kg/day
  % Inhibition: −1.4%
[2]; day 19, PM00104 0.60, sorafenib 60 mg/kg/day
  % Inhibition: 11.2%
[2]; [12]
  % Inhibition: −1.4%
  % T/C: 101.4%
[2]; day 19, PM00104 0.90, sorafenib 60 mg/kg/day
  % Inhibition: 11.2%
[2]; day 22, PM00104 0.60, sorafenib 30 mg/kg/day
  % Inhibition: −23.5%
[2]; day 22, PM00104 0.60, sorafenib 60 mg/kg/day
  % Inhibition: 21.3%
[2]; [5]
  % Inhibition: −23.5%
  % T/C: 123.5%
[2]; [6]
  % Inhibition: 21.3%
  % T/C: 78.7%
[2]; day 26, PM00104 0.60, sorafenib 30 mg/kg/day
  % Inhibition: 8.7%
[2]; day 26, PM00104 0.60, sorafenib 60 mg/kg/day
  % Inhibition: 39.9%
[2]; day 26, PM00104 0.90, sorafenib 30 mg/kg/day
  % Inhibition: 8.7%
[2]; [13]
  % Inhibition: 39.9%
  % T/C: 60.1%
[2]; day 30, PM00104 0.60, sorafenib 30 mg/kg/day
  % Inhibition: −0.9%
[2]; day 30, PM00104 0.60, sorafenib 60 mg/kg/day
  % Inhibition: 38.2%
[2]; [14]
  % Inhibition: −0.9%
  % T/C: 100.9%
[2]; [15]
  % Inhibition: 38.2%
  % T/C: 61.8%
[2]; day 33, PM00104 0.60, sorafenib 30 mg/kg/day
  % Inhibition: 9.6%
[2]; day 33, PM00104 0.60, sorafenib 60 mg/kg/day
  % Inhibition: 33.8%
[2]; day 33, PM00104 0.90, sorafenib 30 mg/kg/day
  % Inhibition: 9.6%
[2]; [16]
  % Inhibition: 33.8%
  % T/C: 66.2%

## CO[C@H]1C[C@@H]2CC[C@@H](C)[C@@](O)(O2)C(=O)C(=O)N2CCCC[C@H]2C(=O)O[C@H]([C@H](C)C[C@@H]2CC[C@@H](OC(=O)C(C)(CO)CO)[C@H](OC)C2)CC(=O)[C@H](C)/C=C(\C)[C@@H](O)[C@@H](OC)C(=O)[C@H](C)C[C@H](C)/C=C/C=C/C=C/1C [temsirolimus]
[3]; Temsirolimus 10 mg/kg/day IP
  % T/C on day 9: 101.9%
  % T/C on day 13: 60.4%
  % T/C on day 16: 55.5%
  % T/C on day 21: 40.5%
  % T/C on day 24: 18.9%
  % T/C on day 30: 22.0%
  % T/C on day 38: 52.0%
  % T/C on day 41: 66.4%
[3]; Temsirolimus 20 mg/kg/day IP
  % T/C on day 9: 104.4%
  % T/C on day 13: 66.4%
  % T/C on day 16: 68.4%
  % T/C on day 21: 46.8%
  % T/C on day 24: 35.9%
  % T/C on day 27: 15.9%
  % T/C on day 30: 23.9%
  % T/C on day 38: 61.2%
  % T/C on day 41: 65.2%
